Results reported in article PMC9821293, “Anammox Bacterial S-Adenosyl-L-Methionine Dependent Methyltransferase Crystal Structure and Its Interaction with Acyl Carrier Proteins” (International Journal of Molecular Sciences, 2023).

Molecular target: T1, AmxMT1 (Candidatus Brocadia fulgida, UniProt A0A0M2USF2)
T1 construct: gene BROFUL_02287; five N-terminal residues removed; C-terminal TEV site and 6xHis tag, His tag cleaved; codon-optimised, pET28b, E. coli C43(DE3) with pGro7; one molecule in the asymmetric unit
T1 sequence (A0A0M2USF2 6-354): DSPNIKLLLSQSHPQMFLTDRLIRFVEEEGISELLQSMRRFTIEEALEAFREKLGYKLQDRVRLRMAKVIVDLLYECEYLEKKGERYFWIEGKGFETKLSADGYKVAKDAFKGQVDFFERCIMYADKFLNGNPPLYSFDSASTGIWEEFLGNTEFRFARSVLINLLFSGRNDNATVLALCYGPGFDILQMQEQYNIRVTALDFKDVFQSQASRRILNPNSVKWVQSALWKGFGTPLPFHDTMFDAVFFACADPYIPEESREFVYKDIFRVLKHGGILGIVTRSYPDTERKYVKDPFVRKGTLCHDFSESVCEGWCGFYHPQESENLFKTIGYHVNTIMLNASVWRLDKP
Experiment: X-ray crystal structure of the complex (SAD phasing, molecular replacement)
Format: binding
Details: SAM (2.25 mM) added for crystallization, SAH found in the crystal; 5 mM DTT; HEPES pH 7.0, PEG 2000, 20 °C; cosubstrate pocket between core domain and inserted helix

With Nc1ncnc2c1ncn2[C@@H]1O[C@H](CSCC[C@H](N)C(=O)O)[C@@H](O)[C@H]1O [SAH] as the molecule, how does the “X-ray crystal structure of the complex (SAD phasing, molecular replacement)” value read?
The value was “S-adenosyl-L-homocysteine (SAH) is located in the pocket between the core domain and inserted helix”.
